Source: US7071231B2, “Naphthalene ureas as glucose uptake enhancers” (Telik, Inc., priority 1999, dated 2006)

System: 3T3 L1 fibroblasts
Test: Glucose transport activity assay (14C-2-deoxy-D-glucose uptake)
Assay type: cell-based
Conditions: EC (effective concentration) for increase in glucose transport; 14C-2-deoxy-D-glucose, 3T3 L1 cells; read-out: Concentration (μM) to reach >150% activity of vehicle control
Method: Glucose Transport Activity Assay.
Stimulation of the insulin receptor leads to the transport of glucose from the blood into cells, thus modulating blood glucose levels. 3T3 L1 fibroblasts (ATCC) were grown in Dulbecco's modified Eagle's medium (DMEM) with 10% fetal bovine serum (FBS). The cells were plated at a density of 3×10^4 cells/well in 24-well plates. Two days after confluence was reached, the cells were treated for 3 days with 0.5 mM isobutylmethylxanthine (IBMX), 1 μM dexamethasone, and 1.7 μM insulin. The cells were then transferred to DMEM with 10% FBS and supplemented with 1.7μM insulin for 2 more days. The cells were maintained in DMEM with 10% FBS for an additional 4 days. Finally the cells were serum-starved overnight in 0.1% bovine serum albumin (BSA) in DMEM.
The following day, the medium was replaced with 150 mM NaCl, 1.7 mM KCl, 0.9 mM CaCl2, K2HPO4 (pH 7.4) to which were added either the experimental compounds or their vehicle (DMSO). Insulin or its vehicle (0.01% BSA) was diluted in the assay buffer (containing test compound or vehicle, respectively) to final concentration of […]. After incubation for 30 min at 37° C., 5 μCi/ml ^14C-2-deoxy-D-glucose was added, and the incubation was continued for additional 30 min at 37° C. The cells were then washed 3 times with ice-cold PBS/20 mM glucose and lysed in 250 μl of lysis buffer (50 mM HEPES pH 7.6, 1% Triton X-100) for 30 min at room temperature. Radioactivity in the lysate was quantified by scintillation counting.
Once ^14C-2-deoxy-D-glucose is transported into the cell, it is not released. Glucose transport is, therefore, proportional to the amount of radioactivity in the lysate. The concentration of compound necessary to produce an increase in glucose transport to greater than 150% of the vehicle control (generally representing the sum of the standard deviation of the vehicle control plus the largest standard deviation of a test sample) was recorded as the EC (effective concentration). Shown in FIG. 3 is glucose uptake by cells at various concentrations when treated with Compound 13 and Compound 15.

Molecule	EC (150% of vehicle control) [µM]
5-({[7-({[(7-{[(3-carboxy-4-chlorophenyl)amino]sulfonyl}(2-naphthyl))amino]iminomethyl}amino)(2-naphthyl)]sulfonyl}amino)-2-chlorobenzoic acid [Compound 160]	3.2
5-[({7-[3-(7-{[(3-carboxy-4-hydroxyphenyl)amino]sulfonyl}(2-naphthyl))-2-oxoimidazolidinyl](2-naphthyl)}sulfonyl)amino]-2-hydroxybenzoic acid [Compound 122]	32

Same assay, conditions: Mus musculus, 3T3-L1, read-out: Concentration (μM) to reach >150% activity of vehicle control

Molecule	EC (150% of vehicle control) [µM]
O=C(Nc1ccc2ccc(S(=O)(=O)Nc3ccc([N+](=O)[O-])c(C(=O)O)c3)cc2c1)Nc1ccc2ccc(S(=O)(=O)Nc3ccc([N+](=O)[O-])c(C(=O)O)c3)cc2c1 [Compound 38, 5-{[(7-{[N-(7-{[(3-carboxy-4-nitrophenyl)amino]sulfonyl}(2-naphthyl))carbamoyl]amino}(2-naphthyl))sulfonyl)amino}-2-nitrobenzoic acid]	3.2

Same assay, conditions: Mus musculus; EC (effective concentration) for increase in glucose transport; 14C-2-deoxy-D-glucose, 3T3 L1 cells; read-out: Concentration (μM) to reach >150% activity of vehicle control

Molecule	EC (150% of vehicle control) [µM]
O=C(Nc1ccc2ccc(S(=O)(=O)O)cc2c1)Nc1ccc2ccc(S(=O)(=O)Nc3ccc(S(=O)(=O)O)cc3)cc2c1 [Compound 20, 7-{[(7-{[(4-sulfophenyl)amino]sulfonyl}-2-naphthyl)amino]carbonylamino}naphthalene-2-sulfonic acid]	3.2
O=C(Nc1ccc2ccc(S(=O)(=O)Nc3ccc(S(=O)(=O)O)cc3)cc2c1)Nc1ccc2ccc(S(=O)(=O)Nc3ccc(S(=O)(=O)O)cc3)cc2c1 [Compound 22, 4{[(7-{[N-(7-{[(4-sulfophenyl)amino]sulfonyl}-2-naphthyl)carbamoyl]amino}-2-naphthyl)sulfonyl]amino}benzenesulfonic acid]	3.2
O=C(Nc1ccc2ccc(S(=O)(=O)Nc3ccc(C(=O)O)cc3)cc2c1)Nc1ccc2ccc(S(=O)(=O)Nc3ccc(C(=O)O)cc3)cc2c1 [Compound 25, 4-{[(7-{[N-(7-{[(4-carboxyphenyl)amino]sulfonyl}-2-naphthyl)carbamoyl]amino}-2-naphthyl)sulfonyl]amino}benzoic acid]	3.2
O=C(Nc1ccc2ccc(S(=O)(=O)O)cc2c1)Nc1ccc2ccc(S(=O)(=O)Nc3cccc(C(=O)O)c3O)cc2c1 [Compound 30, 2-hydroxy-3-{[(7-{[N-(7-sulfo(2-naphthyl))carbamoyl]amino}(2-naphthyl))sulfonyl]amino}benzoic acid]	3.2
O=C(Nc1ccc2ccc(S(=O)(=O)Nc3cccc(C(=O)O)c3O)cc2c1)Nc1ccc2ccc(S(=O)(=O)Nc3cccc(C(=O)O)c3O)cc2c1 [Compound 31, 3-{[(7-{[N-(7-{[(3-carboxy-2-hydroxyphenyl)amino]sulfonyl}(2-naphthyl))carbamoyl]amino}(2-naphthyl))sulfonyl]amino}-2-hydroxybenzoic acid]	3.2
O=C(Nc1ccc2ccc(S(=O)(=O)O)cc2c1)Nc1ccc2ccc(S(=O)(=O)Nc3ccc(O)c(C(=O)O)c3)cc2c1 [Compound 32, 2-hydroxy-5-{[(7-{[N-(7-sulfo(2-naphthyl))carbamoyl]amino}(2-naphthyl))sulfonyl]amino}benzoic acid]	32
O=C(Nc1ccc2ccc(S(=O)(=O)Nc3ccc(O)c(C(=O)O)c3)cc2c1)Nc1ccc2ccc(S(=O)(=O)Nc3ccc(O)c(C(=O)O)c3)cc2c1 [Compound 33, 5-{[(7-{[N-(7-{[(3-carboxy-4-hydroxyphenyl)amino]sulfonyl}(2-naphthyl))carbamoyl]amino}(2-naphthyl))sulfonyl]amino}-2-hydroxybenzoic acid]	3.2
O=C(Nc1ccc2ccc(S(=O)(=O)O)cc2c1)Nc1ccc2ccc(S(=O)(=O)Nc3ccc(C(=O)O)c(O)c3)cc2c1 [Compound 34, 2-hydroxy-4-{[(7-{[N-(7-sulfo(2-naphthyl))carbamoyl]amino}(2-naphthyl))sulfonyl]amino}benzoic acid]	> 32
O=C(Nc1ccc2ccc(S(=O)(=O)Nc3ccc(C(=O)O)c(O)c3)cc2c1)Nc1ccc2ccc(S(=O)(=O)Nc3ccc(C(=O)O)c(O)c3)cc2c1 [Compound 35, 4-{[(7-{[N-(7-{[(4-carboxy-3-hydroxyphenyl)amino]sulfonyl}(2-naphthyl))carbamoyl]amino}(2-naphthyl))sulfonyl]amino}-2-hydroxybenzoic acid]	32
O=C(Nc1ccc2ccc(S(=O)(=O)O)cc2c1)Nc1ccc2ccc(S(=O)(=O)Nc3ccc([N+](=O)[O-])c(C(=O)O)c3)cc2c1 [Compound 37, 2-nitro-5-{[(7-{[N-(7-sulfo(2-naphthyl))carbamoyl]amino}(2-naphthyl))sulfonyl]amino}benzoic acid]	3.2
O=C(Nc1ccc2c(O)cc(S(=O)(=O)Nc3ccc(O)c(C(=O)O)c3)cc2c1)Nc1ccc2c(O)cc(S(=O)(=O)Nc3ccc(O)c(C(=O)O)c3)cc2c1 [Compound 43, 5-{[(7-{[N-(7-{[(3-carboxy-4-hydroxyphenyl)amino]sulfonyl}-5-hydroxy(2-naphthyl))carbamoyl]amino}-4-hydroxy(2-naphthyl))sulfonyl]amino}-2-hydroxybenzoic acid]	10
O=C(Nc1ccc2ccc(S(=O)(=O)Nc3ccccc3C(=O)O)cc2c1)Nc1ccc2ccc(S(=O)(=O)Nc3ccccc3C(=O)O)cc2c1 [Compound 45, 2-{[(7-{[N-(7-{[(2-carboxyphenyl)amino]sulfonyl}-2-naphthyl)carbamoyl]amino}-2-naphthyl)sulfonyl]amino}benzoic acid]	3.2
O=C(Nc1ccc2c(O)cc(S(=O)(=O)Nc3ccccc3C(=O)O)cc2c1)Nc1ccc2c(O)cc(S(=O)(=O)Nc3ccccc3C(=O)O)cc2c1 [Compound 47, 2-{[(7-{[N-(7-{[(2-carboxyphenyl)amino]sulfonyl}-5-hydroxy(2-naphthyl))carbamoyl]amino}-4-hydroxy-2-naphthyl)sulfonyl]amino}benzoic acid]	3.2
O=C(Nc1ccc2c(O)cc(S(=O)(=O)Nc3ccc(Cl)c(C(=O)O)c3)cc2c1)Nc1ccc2c(O)cc(S(=O)(=O)Nc3ccc(Cl)c(C(=O)O)c3)cc2c1 [Compound 49, 5-{[(7-{[N-(7-{[(3-carboxy-4-chlorophenyl)amino]sulfonyl}-5-hydroxy(2-naphthyl))carbamoyl]amino}-4-hydroxy(2-naphthyl))sulfonyl]amino}-2-chlorobenzoic acid]	3.2
COC(=O)c1cc(NS(=O)(=O)c2cc(O)c3ccc(NC(=O)Nc4ccc5c(O)cc(S(=O)(=O)Nc6cc(C(=O)OC)cc(C(=O)OC)c6)cc5c4)cc3c2)cc(C(=O)OC)c1 [Compound 50, methyl 3-({[7-({[7-({[3,5-bis(methoxycarbonyl)phenyl]amino}sulfonyl)-5-hydroxy(2-naphthyl)]amino}carbonylamino)-4-hydroxy(2-naphthyl)]sulfonyl}amino)-5-(methoxycarbonyl)benzoate]	3.2
O=C(Nc1ccc2c(O)cc(S(=O)(=O)Nc3cc(C(=O)O)cc(C(=O)O)c3)cc2c1)Nc1ccc2c(O)cc(S(=O)(=O)Nc3cc(C(=O)O)cc(C(=O)O)c3)cc2c1 [Compound 51, 5-{[(7-{[N-(7-{[(3,5-dicarboxyphenyl)amino]sulfonyl}-5-hydroxy(2-naphthyl))carbamoyl]amino}-4-hydroxy-2-naphthyl)sulfonyl]amino}benzene-1,3-dicarboxylic acid]	> 32
O=C(O)Cc1cccc(NS(=O)(=O)c2cc(O)c3ccc(NC(=O)Nc4ccc5c(O)cc(S(=O)(=O)Nc6cccc(CC(=O)O)c6)cc5c4)cc3c2)c1 [Compound 52, 2-[3-({[7-({[7-({[3-(carboxymethyl)phenyl]amino}sulfonyl)-5-hydroxy(2-naphthyl)]amino}carbonylamino)-4-hydroxy-2-naphthyl]sulfonyl}amino)phenyl]acetic acid]	3.2
O=C(Nc1ccc2ccc(S(=O)(=O)Nc3ccc(Br)c(C(=O)O)c3)cc2c1)Nc1ccc2ccc(S(=O)(=O)Nc3ccc(Br)c(C(=O)O)c3)cc2c1 [Compound 56, 2-bromo-5-{[(7-{[N-(7-{[(4-bromo-3-carboxyphenyl)amino]sulfonyl}(2-naphthyl))carbamoyl]amino}(2-naphthyl))sulfonyl]amino}benzoic acid]	3.2
Cc1ccc(NS(=O)(=O)c2ccc3ccc(NC(=O)Nc4ccc5ccc(S(=O)(=O)Nc6ccc(C)c(C(=O)O)c6)cc5c4)cc3c2)cc1C(=O)O [Compound 57, 5-{[(7-{[N-(7-{[(3-carboxy-4-methylphenyl)amino]sulfonyl}(2-naphthyl))carbamoyl]amino}(2-naphthyl))sulfonyl]amino}-2-methylbenzoic acid]	3.2
